In US12146005B2, “Compositions and methods for treatment of fungal infections” (THE UNIVERSITY OF SOUTHERN CALIFORNIA, priority 2019, dated 2024):
In brackets after ≈: the same amount, converted by molar mass. Entries after “also recorded” stand apart in the source; their conditions may differ. Like-named read-outs stand apart in the source and are kept apart here. Bridge positions count the residues as written; N and C are the ends.

Key:
C. albicans SC5314 [1] = assay: In vivo model of disseminated candidiasis in BALB/c mice (survival, body weight, renal fungal burden); settings: for survival compared to saline controls, P (log-rank analysis): observed 26 days p.i.; for survival compared to saline controls, P (log-rank analysis) / survival efficacy, comparison in words: FIG. 8; for renal fungal burden reduced to a greater extent than fluconazole, P (Fisher's LSD test): peptide 0.1 or 0.25 mg/kg versus fluconazole 5 mg/kg; for survival efficacy relative to MTD1280: candidemia model, survival as metric, 0.1 mg/kg versus MTD1280 0.25 mg/kg, FIGS. 10 to 13; for survival by end point analysis versus fluconazole: χ^2 analysis at day 30 p.i.
Procedure: Mice were infected i.v. at T=0 with 3×105 blastospores of C. albicans SC5314.
Mice were infected i.v. at T=0 with 3×10^5 blastospores of C. albicans SC5314. At T=24 h, mice were treated i.p. daily for 7 d w.
Suitable cyclic tetradecapeptides can be identified by screening against a murine model for disseminated candidiasis. C. albicans SC5314 obtained from American Type Culture Collection can be used as a suitable reference strain. […] Typical antifungal drugs include caspofungin and fluconazole. Cyclic tetradecapeptides to be tested and antifungal drugs can be suspended or dissolved in water or isotonic saline and administered by one or more of intravenous, subcutaneous, intramuscular, and/or intraperitoneal injection.
In vitro activity of synthetic cyclic tetradecapeptides and antifungal compounds can be determined using conventional culture techniques that are known in the art as described above in relation to RTD-1, and can be used to determine sub-antifungal concentrations. Systemic or disseminated candidiasis can be modeled in vivo by, for example, challenging BALB/c female mice with 0.15 to 2 mL of C. albicans (reference strain or resistant strain) at from about 2×10^5 to about 2×10^7 CFU/mL of the organism. Animals can the be treated with candidate synthetic cyclic tetradecapeptide before challenge with the pathogen, at the time of pathogen challenge, or after challenge with the pathogen. Antifungal drugs and/or candidate synthetic cyclic tetradecapeptide can be administered by intravenous, subcutaneous, intramuscular, and/or intraperitoneal injection in such an in vivo model of systemic or disseminated candidiasis.
In activity studies the synthetic cyclic tetradecapeptide MTD1280 (SEQ ID NO. 6), which was identified initially as having significant antifungal activity, was used as a model peptide. Briefly, 7-8 week old, immunocompetent, female BALB/c mice were challenged i.v. at T=0 with 3×10^5 CFU of C. albicans SC5314. […] As shown, caspofungin (Caspo) is not effective against this strain of C. albicans.
Candidate synthetic cyclic tetradecapeptides were pre-screened for tolerance by determining a lack of toxicity when administered at >5 mg/kg.

C. albicans SC5314 [2] = settings: strain SC5314, cited from earlier work
C. albicans strain 43001 = settings: cited from earlier work
C. albicans strain 53264 = settings: cited from earlier work
[3] = tested on: susceptible and multiple drug resistant strains of C. albicans; settings: cited from earlier work
C. albicans [4] = assay: In vitro antifungal activity, sub-antifungal concentration, C. albicans in general; format: cell-based, Candida albicans; settings: in the presence of serum
Excerpt: Within the context of this application, a “sub-antifungal concentration” in regard to a fungal pathogen should be understood to be a concentration at which the compound so described has no antifungal effect when applied to the fungal pathogen in vitro (e.g. in a liquid culture medium), e.g. in the absence of host immune effectors.
Basso et al. (Basso et al., “Rhesus theta defensin 1 promotes long term survival in systemic candidiasis by host directed mechanisms” Nature Scientific Reports (2019) 9: 16905) provides an example of determination of sub-antifungal concentration for the native θ-defensin RTD-1 in regard to different strains of Candida albicans. Cultures of different strains of C. albicans were established in RPMI media or RPMI media containing 50% serum. […] MFC was determined as the lowest concentration that provided 99% killing relative to the input inoculum. MIC was determined as the lowest concentration that inhibited growth.
Based on such data, for C. albicans a sub-antifungal concentration of RTD-1 in the presence of serum would be less than 100 μg/mL. Such sub-antifungal concentrations can be determined experimentally (for example, by culture from a patient sample) or, preferably, from historical data. […]

C. albicans [5] = settings: cited from earlier work
[6] = 5 mg/kg i.p. daily for 7 d from 24 h p.i.
[7] = 5 mg/kg i.p. once a day for 7 days
[8] = RPMI, lowest concentration giving 99% killing
[9] = RPMI, lowest concentration that inhibited growth
[10] = long term survivors 30 days p.i., FIG. 14

In the case of CC[C@H](C)C[C@H](C)CCCCCCCCC(=O)N[C@H]1C[C@@H](O)[C@@H](NCCN)NC(=O)[C@@H]2[C@@H](O)CCN2C(=O)[C@H]([C@H](O)CCN)NC(=O)[C@H]([C@H](O)[C@@H](O)c2ccc(O)cc2)NC(=O)[C@@H]2C[C@@H](O)CN2C(=O)[C@H]([C@@H](C)O)NC1=O [Caspofungin, caspofungin], the “survival compared to saline controls, P (log-rank analysis)” value (C. albicans SC5314 [1]; [6]) is listed as 3.4×10^−6, the “survival efficacy, comparison in words” value (C. albicans SC5314 [1]; [7]) is listed as “not effective” and the MFC (C. albicans SC5314 [2]; [8]) is listed as >256 µg/mL. The MIC (C. albicans SC5314 [2]; [9]) was 0.06 µg/mL (≈ 0.0549 µM), the MFC (C. albicans strain 43001; RPMI) was 2 µg/mL (≈ 1.83 µM) and the MIC (C. albicans strain 43001; RPMI) was 2 µg/mL (≈ 1.83 µM). For the same compound, the MFC (C. albicans strain 53264; RPMI) was >8 µg/mL and the MIC (C. albicans strain 53264; RPMI) was >8 µg/mL.
For OC(Cn1cncn1)(Cn1cncn1)c1ccc(F)cc1F [Fluconazole, fluconazole], the “survival compared to saline controls, P (log-rank analysis)” value (C. albicans SC5314 [1]; [6]) is given as 3.4×10^−6, the “renal fungal burden in kidney homogenates” value (C. albicans SC5314 [1]; long term survivors 30 days p.i., peptide 0.1 or 0.25 mg/kg, fluconazole 5 mg/kg, FIG. 14) is given as “reduced fungal burden” and the MIC (C. albicans SC5314 [2]; [9]) is given as 64 µg/mL (≈ 209 µM).
With “MTD1280: model synthetic cyclic tetradecapeptide θ-defensin analog, SEQ ID NO. 6, used as reference peptide (GVCICRRRFCLCRR; cyclic; Synthetic cyclic peptide MTD1280)” the survival benefit (C. albicans SC5314 [1]; 0.1 mg/kg i.p. once a day for 7 days, FIG. 9) was “no survival benefit”, the “survival compared to saline controls, P (log-rank analysis)” value (C. albicans SC5314 [1]; 0.25 mg/kg i.p. daily for 7 d from 24 h p.i.) was 2.3×10^−7 and the “survival efficacy, comparison in words” value (C. albicans SC5314 [1]; 0.25 mg/kg i.p. once a day for 7 days) was “more effective than 5 mg/kg of RTD-1; also recorded: more effective than 5 mg/kg of fluconazole”. For the same compound, the “transient mean reduction in bodyweight” value (C. albicans SC5314 [1]; long term surviving treated candidemic mice, plateaued by day 10) was 15%, the “share of cohort that regained initial body weights” value (C. albicans SC5314 [1]; long term surviving treated mice; by day 3)) was 90% and the “renal fungal burden reduced to a greater extent than fluconazole, P (Fisher's LSD test)” value (C. albicans SC5314 [1]; [10]) was 3×10^−3.
With “MTD1283: synthetic cyclic tetradecapeptide θ-defensin analog, SEQ ID NO. 4, two disulfide bonds (cyclo(GVCICRRRVCICRR); disulfide (positions not given here))” the “survival efficacy relative to MTD1280” value (C. albicans SC5314 [1]) was “equivalent or superior to MTD1280”, the “renal fungal burden reduced to a greater extent than fluconazole, P (Fisher's LSD test)” value (C. albicans SC5314 [1]; [10]) was 7.4×10^−3 and the “survival by end point analysis versus fluconazole” value (C. albicans SC5314 [1]; fluconazole 5 mg/kg) was “more effective than fluconazole”.
With “MTD1288: synthetic cyclic tetradecapeptide θ-defensin analog, SEQ ID NO. 5, two disulfide bonds (cyclo(GLCICRRRACLCRR); disulfide (positions not given here))” the “survival efficacy relative to MTD1280” value (C. albicans SC5314 [1]) was “equivalent or superior to MTD1280”, the “renal fungal burden reduced to a greater extent than fluconazole, P (Fisher's LSD test)” value (C. albicans SC5314 [1]; [10]) was 0.02 and the “survival by end point analysis versus fluconazole” value (C. albicans SC5314 [1]; fluconazole 5 mg/kg) was “more effective than fluconazole”.
With “MTD12810: synthetic cyclic tetradecapeptide θ-defensin analog, SEQ ID NO. 2, two disulfide bonds (Cys3-Cys12, Cys5-Cys10) (cyclo(GVCSCRRRFCLCRR); disulfide 5-10, 3-12)” the “survival efficacy relative to MTD1280” value (C. albicans SC5314 [1]) was “equivalent or superior to MTD1280”, the “renal fungal burden reduced to a greater extent than fluconazole, P (Fisher's LSD test)” value (C. albicans SC5314 [1]; [10]) was 3.5×10^−5 and the “survival by end point analysis versus fluconazole” value (C. albicans SC5314 [1]; fluconazole 5 mg/kg) was “more effective than fluconazole”.
With “MTD12811: synthetic cyclic tetradecapeptide θ-defensin analog, SEQ ID NO. 3, two disulfide bonds (cyclo(GVCSCRRRFCICRR); disulfide (positions not given here))” the “survival efficacy relative to MTD1280” value (C. albicans SC5314 [1]) was “equivalent or superior to MTD1280”.
For “RTD-1: naturally occurring rhesus θ-defensin, cyclic octadecapeptide with three disulfide bonds, SEQ ID NO. 1 (cyclo(GFCRCLCRRGVCRCICTR); disulfide (positions not given here); listed as Macaca mulatta)”, the “survival compared to saline controls, P (log-rank analysis)” value (C. albicans SC5314 [1]; [6]) is given as 3.4×10^−6, the “survival efficacy, comparison in words” value (C. albicans SC5314 [1]; [7]) is given as “more effective than 5 mg/kg of fluconazole” and the MFC (C. albicans SC5314 [2]; 50% serum) is given as >100 µg/mL. For the same compound, the MIC (C. albicans SC5314 [2]; 50% serum) was >100 µg/mL, the MFC (C. albicans SC5314 [2]; [8]) was 25 µg/mL and the MIC (C. albicans SC5314 [2]; [9]) was 12.5 µg/mL. The MFC (C. albicans strain 43001; 50% serum) was >100 µg/mL, the MIC (C. albicans strain 43001; 50% serum) was >100 µg/mL and the MFC (C. albicans strain 43001; RPMI) was 12.5 µg/mL. For the same compound, the MIC (C. albicans strain 43001; RPMI) was 6.25 µg/mL, the MFC (C. albicans strain 53264; 50% serum) was >100 µg/mL and the MIC (C. albicans strain 53264; 50% serum) was >100 µg/mL. The MFC (C. albicans strain 53264; RPMI) was 12.5 µg/mL, the MIC (C. albicans strain 53264; RPMI) was 12.5 µg/mL and the “long term production of pro-inflammatory cytokines” value ([3]; in vivo, treatment with RTD-1) was “reduction in long term production of pro-inflammatory cytokines”. The “efficacy in animal models of systemic candidiasis” value ([3]; susceptible and multiple drug resistant strains) was “effective”, the sub-antifungal concentration (C. albicans [4]) was “less than 100 μg/mL” and the “in vitro antifungal activity in the presence of serum” value (C. albicans [5]; in vitro studies, serum) was “abolished by the presence of serum”. The “in vitro concentration required relative to concentrations effective in vivo” value (C. albicans [5]; in vitro versus murine model) was ≥ 50 fold.
